Measurements taken from a compilation of properties of binary mixtures (doi:10.1016/j.molliq.2016.02.018).

Test: xn = mol fraction of the nth substance listed
Conditions: 101 kPa

CCCC[n+]1ccn(C)c1.O=S(=O)([N-]S(=O)(=O)C(F)(F)F)C(F)(F)F + CC(=O)[O-].CCCC[n+]1ccn(C)c1
x1 = 1
Conditions	electrical conductivity [S/m]	viscosity [mPa·s]
283.15 K	0.207	106
298.15 K	0.404	51
333.15 K	1.18	15.5

CC(=O)[O-].CCCC[n+]1ccn(C)c1 + CCCC[n+]1ccn(C)c1.O=S(=O)([N-]S(=O)(=O)C(F)(F)F)C(F)(F)F
Conditions	electrical conductivity, 283.15 K [S/m]	electrical conductivity, 298.15 K [S/m]	electrical conductivity, 313.15 K [S/m]	electrical conductivity, 314.3 K [S/m]	electrical conductivity, 333.15 K [S/m]	viscosity, 283.15 K [mPa·s]	viscosity, 298.15 K [mPa·s]	viscosity, 313.15 K [mPa·s]	viscosity, 314.3 K [mPa·s]	viscosity, 333.15 K [mPa·s]
x2 = 0	–	0.0522	–	0.146	0.369	–	441	–	132	54.7
x2 = 0.1057	–	0.0683	–	–	–	–	343	–	–	–
x2 = 0.2396	0.0292	0.0856	0.196	–	0.46	817	255	102	–	40.3
x2 = 0.321	–	–	–	0.237	–	–	–	–	70	–
x2 = 0.3662	–	0.109	–	–	0.514	–	192	–	–	34.3
x2 = 0.5245	0.0623	0.153	0.309	0.33	0.639	357	134	62	–	27.9
x2 = 0.6541	0.0888	0.203	–	–	0.755	248	101	–	–	23.5
x2 = 0.8097	0.133	–	–	–	0.932	165	–	–	–	19.4
